Data taken from patent US20090197856A1, “ANTIVIRAL COMPOUNDS” (Genelabs Technologies, Inc., priority 2007, published 2009).

Assays:
NS5B = target: T1, NS5B (Hepatitis C virus genotype 1b, UniProt Q9WMX2); test: Polymerase assay, incorporation of radiolabeled GTP with biotinylated oligoG13 primer and polycytidylic acid RNA template; format: biochemical; settings: polyC RNA template, biotin-oligoG13 primer, tritiated GTP, 3 nM NS5B, 30° C., 2 hours
T1 construct: 3 nM NS5B, 20 nM polyC RNA template
Method: The polymerase activity was also assayed by measuring incorporation of radiolabeled GTP into an RNA product using a biotinylated oligoG13 primer with a polycytidylic acid RNA template. Typically, the assay mixture (40 μL) contains 50 mM HEPES (pH 7.3), 2.5 mM magnesium acetate, 2 mM sodium chloride, 37.5 mM potassium acetate, 5 mM DTT, 0.4 U/mL RNasin, 2.5% glycerol, 3 nM NS5B, 20 nM polyC RNA template, 20 nM biotin-oligoG13 primer, and 0.2 μM tritiated guanosine triphosphate. Test compounds were initially dissolved and diluted in 100% DMSO and further diluted into aqueous buffer, producing a final concentration of 5% DMSO. Typically, compounds were tested at concentrations between 0.2 nM and 10 μM. Reactions were started with addition of tritiated guanosine triphosphate and allowed to continue at 30° C. for 2 hours. Reactions were quenched with 100 μL stop buffer containing 10 mM EDTA and 1 μg/mL streptavidin-coated scintillation proximity beads. Reaction plates were incubated at 4° C. for 10 hours and then incorporation of radioactivity was determined by scintillation counting. The table below lists the IC50 values of compounds determined using this procedure.

HCV-NS5b = target: T2, HCV-NS5b (Hepatitis C virus genotype 1b, UniProt Q9WMX2); test: HCV-NS5b enzyme assay using homopolymer substrate; format: biochemical; settings: homopolymer substrate, [3H]-UTP incorporation, 30° C., 90 minutes; read-out: IC50
T2 construct: (His)6 (C); made in house; host or cells: XL-1 cells (E. coli), IPTG-inducible plasmid
How it was run: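 C-terminal 21-residue-truncated His6-tagged NS5b polymerase, [3H]-UTP incorporation (30 μM UTP) on 50 nM biotinylated poly(A)/U20 template, pH 7.5, 0.3 mM MgCl2, 5% DMSO, 90 min at 30° C, SPA read-out. Ten-point two-fold dilutions (2 nM–50 μM); IC50 from four-parameter fit, Top/Bottom constrained.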

Compound	IC50 (NS5B)	IC50 (HCV-NS5b)
O=C(O)c1ccc2c(C3CCCCC3)c3n(c2c1)CCN1CCC(NC2CCCC2)c2cccc-3c21 (racemic) [Compound 280]	2.18 nM	
NCCC1CCN2CCn3c(c(C4CCCCC4)c4ccc(C(=O)O)cc43)-c3cccc1c32 (single isomer, unassigned) [Compound 302, 4-(2-Aminoethyl)-15-cyclohexyl-5,6,8,9-tetrahydro-4H-indolo[1′,2′:4,5][1,4]diazepino[6,7,1-ij]quinoline-12-carboxylic acid]	2.68 nM	
O=C(O)c1ccc2c(C3CCCCC3)c3n(c2c1)CCCn1cc(N2CCCCC2)c2cccc-3c21 [Compound 261]	3 nM	
CC1(C)C(=O)N2CCCn3c(c(C4CCCCC4)c4ccc(C(=O)O)cc43)-c3cccc1c32 [Compound 265, 12-cyclohexyl-1,1-dimethyl-2-oxo-1,2,5,6-tetrahydro-4H-[1,5]diazocino[1,2-a:5,4,3-h′i′]diindole-9-carboxylic acid]	9 nM	
CCC1(CC)C(=O)N2CCCn3c(c(C4CCCCC4)c4ccc(C(=O)O)cc43)-c3cccc1c32 [Compound 266, 12-cyclohexyl-1,1-diethyl-2-oxo-1,2,5,6-tetrahydro-4H-[1,5]diazocino[1,2-a:5,4,3-h′i′]diindole-9-carboxylic acid]	11 nM	
CCC1(CC)C(=O)N2CCCn3c(c(C4CCCCC4)c4ccc(C(=O)O)cc43)-c3ccc(F)c1c32 [Compound 267, 12-cyclohexyl-1,1-diethyl-15-fluoro-2-oxo-1,2,5,6-tetrahydro-4H-[1,5]diazocino[1,2-a:5,4,3-h′i′]diindole-9-carboxylic acid]	10 nM	
O=C(O)c1ccc2c(C3CCCCC3)c3n(c2c1)CCCN1C(=O)C2(CC2)c2cccc-3c21 [Compound 269, 12′-cyclohexyl-2′-oxo-5′,6′-dihydro-4′H-spiro[cyclopropane-1,1′-[1,5]diazocino[1,2-a:5,4,3-h′i′]diindole]-9′-carboxylic acid]	21 nM	
O=C(O)c1ccc2c(C3CCCCC3)c3n(c2c1)CCCN1C(=O)Cc2cccc-3c21 [Compound 270, 12-cyclohexyl-2-oxo-1,2,5,6-tetrahydro-4H-[1,5]diazocino[1,2-a:5,4,3-h′i′]diindole-9-carboxylic acid]	26 nM	
CC1(C)CN2CCCn3c(c(C4CCCCC4)c4ccc(C(=O)O)cc43)-c3cccc1c32 [Compound 271, 12-cyclohexyl-1,1-dimethyl-1,2,5,6-tetrahydro-4H-[1,5]diazocino[1,2-a:5,4,3-h′i′]diindole-9-carboxylic acid]	15 nM	
CN1CCC2(C1)C(=O)N1CCCn3c(c(C4CCCCC4)c4ccc(C(=O)O)cc43)-c3cccc2c31 (centres unmarked) [Compound 272, 12-cyclohexyl-1′-methyl-2-oxo-5,6-dihydro-4H-spiro[1,5-diazocino[1,2-a:5,4,3-h′i′]diindole-1,3′-pyrrolidine]-9-carboxylic acid]	30 nM	
NC1CCN2CCn3c(c(C4CCCCC4)c4ccc(C(=O)O)cc43)-c3cccc1c32 (centres unmarked) [Compound 273, 4-Amino-15-cyclohexyl-5,6,8,9-tetrahydro-4H-indolo[1′,2′:4,5][1,4]diazepino[6,7,1-ij]quinoline-12-carboxylic acid]	4.39 nM	
N[C@@H]1CCN2CCn3c(c(C4CCCCC4)c4ccc(C(=O)O)cc43)-c3cccc1c32 [Compound 274, (4R)-4-amino-15-cyclohexyl-5,6,8,9-tetrahydro-4H-indolo[1′,2′:4,5][1,4]diazepino[6,7,1-ij]quinoline-12-carboxylic acid]	2.45 nM	
N[C@H]1CCN2CCn3c(c(C4CCCCC4)c4ccc(C(=O)O)cc43)-c3cccc1c32 [Compound 275]	10.1 nM	
CC(C)CNC1CCN2CCn3c(c(C4CCCCC4)c4ccc(C(=O)O)cc43)-c3cccc1c32 (centres unmarked) [Compound 278]	2.57 nM	
O=C(O)c1ccc2c(C3CCCCC3)c3n(c2c1)CCN1CCC(NC2CCC2)c2cccc-3c21 (centres unmarked) [Compound 279]	4.02 nM	
COCCNC1CCN2CCn3c(c(C4CCCCC4)c4ccc(C(=O)O)cc43)-c3cccc1c32 (centres unmarked) [Compound 283]	4.3 nM	
NCCNC1CCN2CCn3c(c(C4CCCCC4)c4ccc(C(=O)O)cc43)-c3cccc1c32 (centres unmarked) [Compound 284]	6.22 nM	
CCN(CC)C1CCN2CCn3c(c(C4CCCCC4)c4ccc(C(=O)O)cc43)-c3cccc1c32 (centres unmarked) [Compound 286]	4.33 nM	
O=C(O)c1ccc2c(C3CCCCC3)c3n(c2c1)CCN1CCC(N2CCCC2)c2cccc-3c21 (centres unmarked) [Compound 287, 15-Cyclohexyl-4-pyrrolidin-1-yl-5,6,8,9-tetrahydro-4H-indolo[1′,2′:4,5][1,4]diazepino[6,7,1-ij]quinoline-12-carboxylic acid]	2.71 nM	

Compound	IC50 (NS5B)	IC50 (HCV-NS5b)
O=C(O)c1ccc2c(C3CCCCC3)c3n(c2c1)CCN1CCC(N2CCCCC2)c2cccc-3c21 (centres unmarked) [Compound 288]	1.8 nM	
O=C(O)c1ccc2c(C3CCCCC3)c3n(c2c1)CCN1CCC(N2CCOCC2)c2cccc-3c21 (centres unmarked) [Compound 289]	2.03 nM	
CCN(CC)[C@@H]1CCN2CCn3c(c(C4CCCCC4)c4ccc(C(=O)O)cc43)-c3cccc1c32 [Compound 290]	1.62 nM	
CCCN[C@@H]1CCN2CCn3c(c(C4CCCCC4)c4ccc(C(=O)O)cc43)-c3cccc1c32 [Compound 291]	1.94 nM	
CC(C)N[C@@H]1CCN2CCn3c(c(C4CCCCC4)c4ccc(C(=O)O)cc43)-c3cccc1c32 [Compound 292, (4R)-15-cyclohexyl-4-(isopropylamino)-5,6,8,9-tetrahydro-4H-indolo[1′,2′:4,5][1,4]diazepino[6,7,1-ij]quinoline-12-carboxylic acid]	2.02 nM	
CC(=O)N[C@@H]1CCN2CCn3c(c(C4CCCCC4)c4ccc(C(=O)O)cc43)-c3cccc1c32 [Compound 293, (4R)-4-Acetamido-15-cyclohexyl-5,6,8,9-tetrahydro-4H-indolo[1′,2′:4,5][1,4]diazepino[6,7,1-ij]quinoline-12-carboxylic acid]	1.71 nM	
CC(C)(C)OC(=O)N[C@@H]1CCN2CCn3c(c(C4CCCCC4)c4ccc(C(=O)O)cc43)-c3cccc1c32 [Compound 294]	1.55 nM	
CC(C)(C)OC(=O)N[C@H]1CCN2CCn3c(c(C4CCCCC4)c4ccc(C(=O)O)cc43)-c3cccc1c32 [Compound 295, (4S)-4-[(tert-butoxycarbonyl)amino]-15-cyclohexyl-5,6,8,9-tetrahydro-4H-indolo[1′,2′:4,5][1,4]diazepino[6,7,1-ij]quinoline-12-carboxylic acid]	8.47 nM	
CC(C)(C)NC(=O)N[C@@H]1CCN2CCn3c(c(C4CCCCC4)c4ccc(C(=O)O)cc43)-c3cccc1c32 [Compound 296, (4R)-4-[(tert-Butylcarbamoyl)amino]-15-cyclohexyl-5,6,8,9-tetrahydro-4H-indolo[1′,2′:4,5][1,4]diazepino[6,7,1-ij]quinoline-12-carboxylic acid]	1.01 nM	
O=C(NCCN1CCCC1)N[C@@H]1CCN2CCn3c(c(C4CCCCC4)c4ccc(C(=O)O)cc43)-c3cccc1c32 [Compound 297]	1.67 nM	
N[C@@H]1CCN2CCn3c(c(C4CCCCC4)c4ccc(C(=O)NC5CC5)cc43)-c3cccc1c32 [Compound 298, (4R)-4-amino-15-cyclohexyl-N-cyclopropyl-5,6,8,9-tetrahydro-4H-indolo[1′,2′:4,5][1,4]diazepino[6,7,1-ij]quinoline-12-carboxamide]	7.17 nM	
CN(C)S(=O)(=O)NC(=O)c1ccc2c(C3CCCCC3)c3n(c2c1)CCN1CC[C@@H](N)c2cccc-3c21 [Compound 299, (4R)-4-amino-15-cyclohexyl-N-[(dimethylamino)sulfonyl]-5,6,8,9-tetrahydro-4H-indolo[1′,2′:4,5][1,4]diazepino[6,7,1-ij]quinoline-12-carboxamide]	1 nM	
CC(C)N1CCC[C@H]1C(=O)N[C@@H]1CCN2CCn3c(c(C4CCCCC4)c4ccc(C(=O)O)cc43)-c3cccc1c32 [Compound 300, (4R)-15-cyclohexyl-4-[(1-isopropyl-L-prolyl)amino]-5,6,8,9-tetrahydro-4H-indolo[1′,2′:4,5][1,4]diazepino[6,7,1-ij]quinoline-12-carboxylic acid]	0.769 nM	
CCN(CC)Cc1cn2c3c(nccc13)-c1c(C3CCCCC3)c3ccc(C(=O)O)cc3n1CCC2 [Compound 465]		1720 nM
O=C(O)c1ccc2c(C3CCCCC3)c3n(c2c1)CCCn1ccc2cc(F)cc-3c21 [Compound 466]		85 nM
O=C(O)c1ccc2c(C3CCCCC3)c3n(c2c1)CCCn1cc(CN2CCCCC2)c2cc(F)cc-3c21 [Compound 467]		95 nM
O=C(O)c1ccc2c(C3CCCCC3)c3n(c2c1)CCn1cc(CN2CCCCC2)c2c(F)ccc-3c21 [Compound 468]		84 nM
COc1ccc2c3c1c(CN1CCN(C)CC1)cn3CCCn1c-2c(C2CCCCC2)c2ccc(C(=O)O)cc21 [Compound 469]		662 nM
O=C(O)c1ccc2c(C3CCCCC3)c3n(c2c1)CCN1CCC(NC2CCCCC2)c2cccc-3c21 (centres unmarked) [compound 281]		61 nM
